Here are results for one compound from BindingDB's records for doi:10.1016/s0960-894x(02)00371-2 (Neurocrine Biosciences, 2002).

This experiment concerns the target Gonadotropin-releasing hormone receptor (Rattus norvegicus) (UniProt P30969). Kind of experiment: Compound was evaluated in cloned rat Gonadotropin-releasing hormone receptor assay for its ability to displace the binding of [125 I-Tyr, DLeu, NMeLeu, Pro-NEt]GnRH agonist.

SMILES strings stand for the structures.

Gonadotropin-releasing hormone receptor (Rattus norvegicus), sequence (P30969 whole entry, looked up): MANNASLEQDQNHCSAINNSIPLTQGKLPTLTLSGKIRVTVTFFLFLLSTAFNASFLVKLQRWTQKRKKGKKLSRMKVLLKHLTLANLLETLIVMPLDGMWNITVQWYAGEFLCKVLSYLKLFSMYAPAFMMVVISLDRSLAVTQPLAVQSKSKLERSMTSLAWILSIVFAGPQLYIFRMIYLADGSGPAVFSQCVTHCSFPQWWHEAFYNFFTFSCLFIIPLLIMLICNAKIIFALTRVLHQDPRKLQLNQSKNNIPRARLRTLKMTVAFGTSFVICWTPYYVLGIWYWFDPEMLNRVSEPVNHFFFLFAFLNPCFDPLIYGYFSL

With `COc1ccc(-c2nc3n(Cc4ccccc4F)c(C)c(-c4ccc5c(c4)OCO5)c(=O)n3c2CN(C)CCc2ccccn2)cc1` [6-Benzo[1,3]dioxol-5-yl-8-(2-fluoro-benzyl)-2-(4-methoxy-phenyl)-7-methyl-3-{[methyl-(2-pyridin-2-yl-ethyl)-amino]-methyl}-8H-imidazo[1,2-a]pyrimidin-5-one], the Ki (in general, a measure of affinity in units of concentration, obtained from inhibition or displacement) is 12 µM.
